Experimental data taken from US11692004B2, “Substituted pyrazole compound, preparation method therefor, pharmaceutical composition and medical use thereof” (JIANGSU VANGUARD PHARMACEUTICAL CO., LTD., priority 2018, dated 2023).
Values after ≈ are worked out from the molar mass of the structure shown. Each block holds one compound with its values, some of them ahead of it.

Key:
[1] = Solubility test in distilled water; type: physicochemical; details: thermodynamic from solid, 25° C.
Method: Test method: the dry compound was slowly dissolved into about 0.5 ml distilled water in a 5 ml EP tube until saturation (turbid after ultra-sonic vibration at 25° C.). The solution was filtered and moved to another clean 5 ml EP tube (pre-weighed) and the tube was weighed again to calculate the solution weight. The solution was freeze dried. The remaining solute was weighed to calculate the solvent weight, and then the compound solubility in water was determined.

Cytotoxic test (MTT) = type: cell-based; details: rat, PC12 cells, 48 h incubation
Method: (§1) After resuscitating, the PC12 cells were cultured in RPMI-1640 containing 10% horse serum and 5% Fetus Bovine Serum (FBS) under 5% CO2 at 37° C. for two weeks. The medium was changed every other day. The compounds were diluted into solutions of 12.5, 25, 50, 100, 200, 300 μM with culture medium (except examples 33-45 with additional solutions of 400 μM and 500 μM). The PC12 cells were seeded into a 96-well plate at a density of 1.2×10^4 cells/well and cultured in a 37° C., 5% CO2 incubator for 24 hours. Remove the medium, the cells were added with the compound solutions of different concentrations as test solutions for another 48 h incubation in a 37° C., 5% CO2 incubator.
(§2) After the incubation, the wells were added with 20 μL 5 mg/mL MTT and incubated for 4 hours at 37° C. Carefully removed the medium and added 150 μL DMSO. The plates were placed on an enzyme-labeled instrument and vibrated for 5 min. The absorbance Atest solution were obtained at 490 nm with the Ablank of the well without cells and the Acontrol of the well with untreated cells. The survival rates of the cells in every well were calculated by the formula as Survival rate (%)=(Atest solution−Ablank)/(Acontrol−Ablank)*100%

PC12 cells = test: In-vitro neuroprotection-I (H2O2 injury, MTT); type: cell-based; details: Rattus norvegicus, PC-12, 48 h compound, then 200 μM H2O2 24 h, MTT survival rate
Method: All samples were made into 60 mM stock solution by DMSO, which were 200 times diluted to 300 μM by medium. And the final concentration was further diluted into different concentrations by media.
Control: Normal cell-plating and same cell medium as other group. 24 hours later, the medium was discarded. Incubate the cell in new media for 24 hours. No compound and hydrogen peroxide treatment. Other steps were the same as the sample test as mentioned below did.
Blank: no cell plating, cell medium, and other steps were the same as the sample test as mentioned below did.
as §1, with “(except that” for “(except”, “The PC 12” for “The PC12”, “of 8×10^3” for “of 1.2×10^4”, “hours. Removed” for “hours. Remove”, “incubator. After the incubation, apart from the blank and control groups, the wells (including 0 μM drug group) were added to the medium-prepared 200 μM H2O2, and continued for another 24 h incubation in a 37° C., 5% CO2 incubator.” for “incubator.”
as §2, with “rate” for “rates”, “well” for “well were calculated”, “survival” for “as Survival”, “solution−Ablank)/(Acontrol−Ablank)*100%.” for “solution−Ablank)/(Acontrol−Ablank)*100%”

[2] = system: MCAO model (middle cerebral artery ischemia-reperfusion); test: In vivo drug efficacy test of MCAO model; details: SD rats, MCAO 2 h then reperfusion, tail vein infusion 30 min; for Cerebral infarction area (%): TTC staining, infarct area to whole brain area; for Improvements of nerve function (%): score at 24 h versus model control
[3] = system: B6SJL-Tg (SOD1*G93A) mice; test: In vivo efficacy test of ALS model; design: key to Rotarod Time / PaGE: “+” indicates a significant difference compared with the solvent group, p < 0.05; details: for Plasma SOD concentration on day 28th(U/mL): ELISA; for PaGE / Rotarod Time: versus solvent group; for Fall latency in rota-rod test and PaGE test: 28-day drug intervention
Method: B6SJL-Tg (SOD1*G93A) mice were intraperitoneally administered single-doses once a day for 4 consecutive weeks. The weight of the mice was determined before and after the administration every week. The motor function of the mice was determined by rota-rod and PaGE tests with the time points before and after 4-week administration. The mice plasma was collected and detected for SOD levels through ELISA. The Index Evaluation described below was used to evaluate the efficacy of the compounds of the examples in ALS model and to what extent the compounds of the examples improve the survival period and motor activity.
The animals were delivered to the SPF animal room and raised for more than one week. Five days before the test, the mice were accustomed to a round of tests per day. The mice were randomly divided into groups according to their body weights, 8 mice for each group. Among them, the solvent group was given with the same volume of solvent (physiological saline) every day.
The mice were administered with a volume of 10 ml/kg.
i.p once a day for 4 weeks.
Index evaluation time started from the beginning of the experiment to the death of the animals.
1) ALS onset time: For 2 consecutive observation days, the mice appeared limb, tremor and/or limb weakness at tail suspension were determined as the ALS onset. The determination of limb weakness: the mice were placed on the rota-rod device with a diameter of 3.5 cm. The speed is set to 15 rpm to record the longest fall latency divided by 420 s. The mice of less 420 s were determined as limb weakness.
2) Rota-rod Test: The mice were placed on the rota-rod device with a diameter of 3.5 cm. The speed is set to 12 rpm to record the longest fall latency divided by 180 s. The latency of more than 180 s was recorded as 180 s, and actual time was recorded when less than 180 s.
3) Paw Grip Endurance (PaGE) Test: The mice were placed on the traditional wire grid. The grid was gently shaken to cause the mice to tighten its grip on the wires then inverted, and time recording commenced. The time was recorded until the mouse lost its grip in hind limbs divided by 90 s. The time more than 90 s was recorded as 90 s, while the time less than 90 s was recorded by its actual time. The test was completed in triplicate with the highest score used for analysis.
5) Plasma SOD concentration: The blood was collected and mixed with EP tube containing heparin before and after administration at the 4th week, and then centrifuged at 1000 g for 10 min. The plasma was collected and stored in aliquots at −70° C. ELISA kit was used to detect plasma SOD levels.

[4] = Stability studies (high humidity, illumination, high temperature, seven days); type: physicochemical; details: 25° C. ± 2° C., 60% ± 5 RH, 4500 ± 500 LX
Method: The stability of samples from some embodiments were examined under high humidity (25° C.±2° C., 90%±5RH), illumination (25° C.±2° C., 60%±5RH, 4500±500LX), high temperature (60° C.±2° C., 60%±5RH), which were stored in the stability incubator for seven days, for the changes of related substances and contents, as shown in Table 2.

[5] = 86 μmol/kg i.p. once a day for 4 weeks

solubility [1]: 3000 µg/mL (≈ 10.3 mM)
Compound: Cc1cc(OC2C[C@H](O)[C@@H](CO)O2)n(-c2ccccc2)n1 (stereo partly drawn) [Compound 40, 1-phenyl-3-methyl-5-O-D-(2-deoxy)riboside-pyrazole]
IC50 at 48 h (Cytotoxic test (MTT)): > 500 µM
EC50 (PC12 cells): 54.7 µM
Cerebral infarction area (%) [2]: 18.5%
Improvements of nerve function (%) [2]: 16.8%

solubility [1]: 4200 µg/mL (≈ 13.1 mM)
Compound: Cc1cc(OC2C[C@@H](O)[C@H](O)[C@@H](CO)O2)n(-c2ccccc2)n1 (stereo partly drawn) [Compound 36, 1-phenyl-3-methyl-5-O-D-(2-deoxy)glucoside-pyrazole]
IC50 at 48 h (Cytotoxic test (MTT)): > 300 µM
EC50 (PC12 cells): 79.6 µM
Cerebral infarction area (%) [2]: 14.1%
Improvements of nerve function (%) [2]: 24.1%

solubility [1]: 5100 µg/mL (≈ 16.6 mM)
Compound: Cc1cc(OC2O[C@H](CO)[C@@H](O)[C@H]2O)n(-c2ccccc2)n1 (stereo partly drawn) [Compound 39, 1-phenyl-3-methyl-5-O-D-riboside-pyrazole]
IC50 at 48 h (Cytotoxic test (MTT)): > 500 µM
EC50 (PC12 cells): 55 µM
Cerebral infarction area (%) [2]: 18.0%
Improvements of nerve function (%) [2]: 16.9%

Further lines, the compound ahead of its results:

Compound: Cc1cc(OC2O[C@H](CO)[C@H](O)[C@H](O)[C@H]2O)n(-c2ccccc2)n1 (stereo partly drawn) [Compound 35, 1-phenyl-3-methyl-5-O-D-galactoside-pyrazole]
solubility [1]: 18000 µg/mL (≈ 53.5 mM)
IC50 at 48 h (Cytotoxic test (MTT)): > 300 µM
EC50 (PC12 cells): 87.9 µM
Cerebral infarction area (%) [2]: 15.8%
Improvements of nerve function (%) [2]: 22.2%

Compound: CC(=O)N[C@H]1C(Oc2cc(C)nn2-c2ccccc2)O[C@H](CO)[C@@H](O)[C@@H]1O (stereo partly shown) [Compound 37]
solubility [1]: 6500 µg/mL (≈ 17.2 mM)
IC50 at 48 h (Cytotoxic test (MTT)): > 500 µM
EC50 (PC12 cells): 90 µM
Cerebral infarction area (%) [2]: 17.6%
Improvements of nerve function (%) [2]: 17.5%

Compound: Cc1cc(OC2O[C@H](CO)[C@@H](O)[C@H](O)[C@H]2O)n(-c2ccccc2)n1 (stereo partly drawn) [Compound 33, 1-phenyl-3-methyl-5-O-D-glucoside-pyrazole]
solubility [1]: 10100 µg/mL (≈ 30 mM)
IC50 at 48 h (Cytotoxic test (MTT)): > 300 µM
EC50 (PC12 cells): 112 µM
Cerebral infarction area (%) [2]: 14.0%
Improvements of nerve function (%) [2]: 24.0%
Onset time(d) [3, 5]: 118.25 ± 5.87* d
Survival time [3, 5]: 149.88 ± 8.37 days
Plasma SOD concentration on day 28th(U/mL) [3, 5]: 155.18 ± 15.37* U/mL
PaGE [3, 5]: +
Rotarod Time [3, 5]: +
Fall latency in rota-rod test and PaGE test [3]: better than the marketed drug edaravone

Compound: Cc1cc(OC2OC[C@@H](O)[C@H](O)[C@H]2O)n(-c2ccccc2)n1 (stereo partly drawn) [Compound 38, 1-phenyl-3-methyl-5-O-D-xylopyranoside-pyrazole]
solubility [1]: 3800 µg/mL (≈ 12.4 mM)
IC50 at 48 h (Cytotoxic test (MTT)): > 500 µM
Cerebral infarction area (%) [2]: 17.8%
Improvements of nerve function (%) [2]: 17.0%

Compound: CC1=NN(c2ccccc2)C(=O)C1 [Edaravone, edaravone, reference compound]
Content Drop, Illumination [4]: 4%
Stability, Illumination: changes of related substances and contents [4]: dropped significantly
solubility [1]: < 1000 µg/mL
EC50 (PC12 cells): 171 µM
Cerebral infarction area (%) [2]: 20.1%
Improvements of nerve function (%) [2]: 15.7%
Onset time [3, 5]: 116.14 ± 7.82 days
Survival time [3, 5]: 147.00 ± 8.94 days
Plasma SOD concentration on day 28th(U/mL) [3, 5]: 153.88 ± 9.91* U/mL
PaGE [3, 5]: +
Rotarod Time [3, 5]: +

Compound: Cc1cc(OCOC(=O)c2cc(N(C)C)ccc2O)n(-c2ccccc2)n1 [Compound 24, (3-methyl-1-phenylpyrazole-5-)oxymethyl-(2-hydroxy-5-N,N-dimethyl)benzoate]
IC50 at 48 h (Cytotoxic test (MTT)): 272 µM
EC50 (PC12 cells): 44.7 µM
Onset time(d) [3, 5]: 118.29 ± 6.32* d
Survival time [3, 5]: 147.71 ± 8.94 days
Plasma SOD concentration on day 28th(U/mL) [3, 5]: 150.55 ± 11.88* U/mL
PaGE [3, 5]: +
Rotarod Time [3, 5]: +
Fall latency in rota-rod test and PaGE test [3]: better than the marketed drug edaravone

Compound: Cc1cc(OC2O[C@H](CO)[C@@H](O)[C@H](O)[C@@H]2O)n(-c2ccccc2)n1 (stereo partly drawn) [Compound 34, 1-phenyl-3-methyl-5-O-D-mannoside-pyrazole]
solubility [1]: 12300 µg/mL (≈ 36.6 mM)
IC50 at 48 h (Cytotoxic test (MTT)): > 300 µM
EC50 (PC12 cells): 120 µM
Cerebral infarction area (%) [2]: 14.5%
Improvements of nerve function (%) [2]: 21.1%
